Measurements from patent US20240252497A1, “USE OF COMPLEMENT FACTOR D INHIBITOR FOR TREATMENT OF GEOGRAPHIC ATROPHY SECONDARY TO AGE-RELATED MACULAR DEGENERATION” (Alexion Pharmaceuticals, Inc., priority 2021, published 2024).

Experiments:
[1] = Ocular distribution of Compound 1 after oral administration; format: in vivo
Description: As an orally administered small molecule, Compound 1 is advantageous over therapeutic agents being investigated for the use in treating GA, which rely in intravitreal administration. In this regard, oral CFD inhibitors, such as Compound 1, not only provide GA patients with a more convenient and accessible option for therapy, but also help reduce the patient and caregiver burden for by lowering the need for clinical visits and minimize the risk of ocular injection-related adverse events. […] Given the overall pharmaceutical profile of Compound 1, the present disclosure provides that a treatment regimen with Compound 1 leads to better patient compliance and improved clinical outcomes in patients with GA.

[2] = MAD study (tolerability, liver enzymes); format: in vivo, human; conditions: high doses, after dosing was ceased
Description: The 100 mg BID, 200 mg BID, and 400 mg QD dose regimens proposed for this study are based on simulation results. […] Based on data from the literature, retina and choroid RPE on the retinal side are more likely to be the target eye tissues. However, the choroid RPE on the capillary bed side cannot be completely ruled out as a potential target. The proposed doses allow for the assessment of two different dosing intervals, i.e., BID vs QD. The 400 mg QD dosing regimen, if shown to be safe and effective, would be more convenient for patients and encourage better compliance relative to bid dosing. An up to 2-fold uncertainty of model prediction on PK and APH inhibition in the target eye tissues is anticipated as the physiological eye parameters in humans were translated from Dutch-Belted rabbits. […] The elevations were transient and not considered of clinical significance. […] A dose taper was instituted in subsequent studies as a risk mitigation measure.

CC(=O)c1nn(CC(=O)N2C[C@H](F)C[C@H]2C(=O)Nc2cccc(Br)n2)c2ccc(-c3cnc(C)nc3)cc12 [Compound 1, (2S,4R)-1-(2-(3-acetyl-5-(2-methylpyrimidin-5-yl)-1H-indazol-1-yl)acetyl)-N-(6-bromopyridin-2-yl)-4-fluoropyrrolidine-2-carboxamide]
blood-retina barrier crossing [1]: cross the blood-retina barrier | retention in ocular tissues after oral administration ([1]; choroid and retinal pigment epithelium (RPE)): selective retention in ocular tissues containing melanin | ALT elevations [2]: ALT elevations were observed at high doses in 2 subjects after dosing was ceased
